This note sets out measurements from ChEMBL document CHEMBL1201862, “PubChem BioAssay data set” (2004).

The target of series [1] is Cytochrome P450 2C9 (Homo sapiens, UniProt P11712).
The target of series [2] is Cytochrome P450 2C19 (Homo sapiens, UniProt P33261). Nature of the series: Cytochrome panel assay with activity outcomes. Panel member name: p450-cyp2c19 Compounds with AC50 equal or less than 10 uM are considered active. The format is functional.
The nature of series [3]: viability of uninfected HEp-2 cells – cell-based, HTS, cytotoxicity control for RSV inhibitor project, dose response (AID 2410). The format is functional. Particulars: human respiratory syncytial virus.
For series [4], the target named is T1, Corticotropin-releasing factor receptor 2/Corticotropin-releasing factor-binding protein (Homo sapiens, UniProt P24387+Q13324).
T1 sequence (Q13324 whole entry): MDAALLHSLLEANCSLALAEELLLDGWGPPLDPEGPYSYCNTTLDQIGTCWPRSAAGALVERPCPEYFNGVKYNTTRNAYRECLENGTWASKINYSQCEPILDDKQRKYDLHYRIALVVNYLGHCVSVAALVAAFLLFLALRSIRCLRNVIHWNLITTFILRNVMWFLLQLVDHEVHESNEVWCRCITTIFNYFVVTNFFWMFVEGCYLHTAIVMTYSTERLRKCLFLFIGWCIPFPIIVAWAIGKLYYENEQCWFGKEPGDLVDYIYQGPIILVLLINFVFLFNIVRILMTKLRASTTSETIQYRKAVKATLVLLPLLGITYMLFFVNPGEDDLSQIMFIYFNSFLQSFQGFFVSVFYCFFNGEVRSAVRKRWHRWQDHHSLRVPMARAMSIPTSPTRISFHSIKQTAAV
T1 sequence (P24387 whole entry): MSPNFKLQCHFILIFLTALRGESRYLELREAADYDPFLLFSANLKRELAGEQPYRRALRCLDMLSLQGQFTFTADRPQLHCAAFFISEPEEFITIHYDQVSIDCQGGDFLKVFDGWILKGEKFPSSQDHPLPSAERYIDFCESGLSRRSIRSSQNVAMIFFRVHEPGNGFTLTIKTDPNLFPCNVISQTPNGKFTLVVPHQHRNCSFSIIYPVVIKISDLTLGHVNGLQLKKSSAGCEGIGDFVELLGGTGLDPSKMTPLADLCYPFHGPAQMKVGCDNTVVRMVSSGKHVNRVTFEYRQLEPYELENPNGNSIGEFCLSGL
Nature of the series: Dose Response confirmation of uHTS hits for small molecule antagonists of the CRF-binding protein and CRF-R2 receptor complex. The format is functional. Particulars: read-out: IC50_Mean.

The target in series [5] is T1, Corticotropin-releasing factor receptor 2/Corticotropin-releasing factor-binding protein. The experiment in a line: activators of CRF receptor 2 with binding protein – uHTS hits, confirmation (AID 602473). The format is functional. Particulars: read-out: EC50_Mean.
Series [6] has as its target Cytochrome P450 2D6 (Homo sapiens, UniProt P10635).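 Further: CYP2D6 member of a cytochrome P450 panel assay.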
Series [7] is described as follows: NIH3T3 cell viability loss – ATP luminescence, mouse fibroblasts, counter-screen, dose response (AID 2010).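 Further: cells exposed to compound for about 90 hours before reading.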 The format is functional, cell-based. For orientation: A counterscreen serves to expose hits that act by an unwanted route or on another target.
A short description of series [8]: Trypanosoma cruzi growth suppression in host cells – NIH3T3 host cells, beta-gal luminescence, confirmation (AID 2044).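 Further: intracellular parasites grown in NIH/3T3 mouse fibroblasts as host cells; luminescent beta-galactosidase reporter signal from transgenic T. cruzi replicating inside host cells; inhibitors lower the luminescence signal.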 The format is functional, cell-based.

SMILES strings stand for the structures. Activity calls are given as the source filed them.

Cytochrome P450 2C19, sequence (P33261 whole entry): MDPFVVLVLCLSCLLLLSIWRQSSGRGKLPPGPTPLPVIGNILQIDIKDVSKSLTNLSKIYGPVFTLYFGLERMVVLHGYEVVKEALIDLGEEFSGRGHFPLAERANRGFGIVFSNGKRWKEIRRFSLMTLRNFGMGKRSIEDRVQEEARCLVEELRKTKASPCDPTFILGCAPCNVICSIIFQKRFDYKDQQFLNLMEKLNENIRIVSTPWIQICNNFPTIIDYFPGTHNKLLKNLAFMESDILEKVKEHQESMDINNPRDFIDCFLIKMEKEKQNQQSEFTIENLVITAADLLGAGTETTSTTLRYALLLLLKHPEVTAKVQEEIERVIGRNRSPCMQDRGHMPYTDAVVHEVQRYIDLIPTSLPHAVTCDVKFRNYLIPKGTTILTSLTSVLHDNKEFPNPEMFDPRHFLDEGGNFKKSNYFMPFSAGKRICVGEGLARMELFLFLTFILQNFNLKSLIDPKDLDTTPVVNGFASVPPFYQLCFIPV
Cytochrome P450 2D6, sequence (P10635 whole entry): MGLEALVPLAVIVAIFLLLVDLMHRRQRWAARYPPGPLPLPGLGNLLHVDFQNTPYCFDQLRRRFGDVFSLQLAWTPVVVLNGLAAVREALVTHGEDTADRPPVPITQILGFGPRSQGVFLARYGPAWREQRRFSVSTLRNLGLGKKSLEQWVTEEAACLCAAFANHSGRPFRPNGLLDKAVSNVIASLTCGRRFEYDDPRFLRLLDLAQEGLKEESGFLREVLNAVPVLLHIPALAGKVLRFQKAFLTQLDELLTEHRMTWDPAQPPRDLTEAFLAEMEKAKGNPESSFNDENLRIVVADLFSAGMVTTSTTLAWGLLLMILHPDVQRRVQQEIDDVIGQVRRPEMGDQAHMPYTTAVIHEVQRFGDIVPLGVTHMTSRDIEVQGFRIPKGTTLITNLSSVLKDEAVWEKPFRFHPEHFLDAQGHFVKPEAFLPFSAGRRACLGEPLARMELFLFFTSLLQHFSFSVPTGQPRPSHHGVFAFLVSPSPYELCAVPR
Cytochrome P450 2C9, sequence (P11712 whole entry): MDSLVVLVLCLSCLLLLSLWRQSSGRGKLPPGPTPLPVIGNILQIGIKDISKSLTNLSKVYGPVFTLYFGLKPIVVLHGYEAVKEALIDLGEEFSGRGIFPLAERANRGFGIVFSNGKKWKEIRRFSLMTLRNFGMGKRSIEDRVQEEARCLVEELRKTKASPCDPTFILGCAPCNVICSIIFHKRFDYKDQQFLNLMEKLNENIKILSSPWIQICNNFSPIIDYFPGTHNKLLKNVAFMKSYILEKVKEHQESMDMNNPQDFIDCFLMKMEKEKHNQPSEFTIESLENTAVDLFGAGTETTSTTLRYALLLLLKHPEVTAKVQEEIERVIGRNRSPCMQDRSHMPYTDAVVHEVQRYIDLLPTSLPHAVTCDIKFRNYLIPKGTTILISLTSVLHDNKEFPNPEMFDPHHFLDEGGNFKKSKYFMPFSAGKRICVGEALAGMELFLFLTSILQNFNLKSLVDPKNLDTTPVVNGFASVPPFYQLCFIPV

`COc1cccc(C(=O)NCCN2CCOCC2)c1`: the AC50 (as a rule, the midpoint of the concentration-response curve, whichever way the signal moves) is 3.55 µM (inconclusive) in series [1] and 20 µM (inconclusive) in series [2] (read-out: AC50).
`CC(C)C(NS(=O)(=O)c1cccs1)C(=O)Nc1nc(C(C)(C)C)cs1` (centres undefined): the CC50 (as a rule, the concentration that lowers cell viability or growth by half) in series [3] is 13.5 µM (active).
As for `Cc1cc(NS(=O)(=O)c2c(C(=O)N3CCOCC3)c(C)n(C)c2C)ccc1Br`, the IC50 in series [4] is > 47.1 µM (inactive). The EC50 in series [5] was > 53 µM (inactive).
For `COC1=C(C)C(=O)c2c(c(COC(N)=O)c3n2C[C@@H]2[C@@H]3N2C)C1=O` (some centres undefined), in series [2] (read-out: AC50), the concentration at half-maximal activity (AC50) was 0.794 µM (inconclusive).
Same read-out and setting: the value for `Cc1nc2cnc(Oc3cccc(Cl)c3)nc2n(Cc2ccc(F)cc2)c1=O` was 31.6 µM (inconclusive).
For `CS(=O)(=O)N1CCC2(CC1)CN(Cc1ccccc1)C2`, the AC50 in series [6] is 15.8 µM (inconclusive).
On to `C[N@+]1(CCC(=O)c2ccccc2)CC[C@H]2CC[C@H](C2)C1`, for which, in series [2], the concentration at half-maximal activity (AC50) result is “inconclusive”.
Consider `Cc1cc(C)c2nc(NC(=O)c3ccc4c(=O)n5c(nc4c3)CCCCC5)sc2c1`, for which the IC50 in series [4] is > 47.1 µM (inactive). Besides, the EC50 in series [5] is > 53 µM (inactive).
As to `CC1CCN(CCCn2c(=S)[nH]c3ccc(N4CCOCC4)cc3c2=O)CC1`, the results for the half-maximal activity concentration (AC50) in series [6], in series [1] and in series [2] were 22.4 µM (inconclusive), 20 µM (inconclusive) and “inconclusive”, respectively.
Take `O=C1Nc2ccccc2/C1=N/NS(=O)(=O)c1ccc(C(=O)O)cc1`: in series [2], the AC50 entry was “inconclusive”.
For `Cc1cc(C)n(-c2ccc(Cl)c(C(=O)O)n2)n1`, the figures for the AC50 in series [1] and in series [2] (read-out: AC50) were 4.47 µM (inconclusive) and 6.31 µM (inconclusive), respectively.
For the molecule `O=C(Nc1cccnc1)c1ccc(-c2ccc(Cl)cc2)o1`, the IC50 in series [4] was > 47.1 µM (inactive). Also, in series [5], the EC50 was > 53 µM (inactive).
Take `Cc1ccccc1NC(=O)C(C)c1cccc(C(=O)c2ccccc2)c1` (centres undefined): the half-maximal activity concentration (AC50) in series [6] is 25.1 µM (inconclusive).
In the case of `COc1ccc(-c2cc(C(F)(F)F)nc(N3CCCCCC3)n2)cc1`, the cytotoxic concentration (CC50) in series [3] was 28.2 µM (active).
On to `CN(C)c1ccc(-c2nc(NCCc3cnc[nH]3)c3ccccc3n2)cc1`, for which the AC50 in series [1] is 0.794 µM (inconclusive).
On to `COc1ccc(-c2cc(C)no2)cc1S(=O)(=O)N1CCN(C(=O)c2ccco2)CC1`, for which the IC50 in series [4] was > 47.1 µM (inactive). For the same molecule, the EC50 in series [5] was > 53 µM (inactive).
As to `Cc1nc(N2CCOCC2)c(C#N)c(C)c1Br`, the cytotoxic concentration (CC50) in series [3] was 30.6 µM (active).
In the case of `COc1ccc(C(=O)N2CCCCC2)cc1S(=O)(=O)Nc1ccccc1`, the concentration at half-maximal activity (AC50) in series [1] was 14.1 µM (inconclusive).
`C#CCOc1ccc2c3c(c(=O)oc2c1)CCCC3`: the CC50 in series [3] is 43.7 µM (active).
The same measure, in the same setting: the value for `C=CCc1cccc(CNc2nc3ccccc3n2C)c1O` was 25.9 µM (active).
On the same count and under the same terms, the same measure for `CC(C)(C)C(=O)Nc1ccc(C(=O)OC2CCCCC2)cc1`: 37.3 µM (active).
In the case of `COCCNc1nc(-c2ccccc2Cl)nc2ccccc12`, in series [2] (read-out: AC50), the concentration at half-maximal activity (AC50) was 0.0316 µM (inconclusive).
`Cc1cc(N)n2ncc(-c3cccc(Br)c3)c2n1`: the 50% cytotoxic concentration (CC50) in series [3] is > 50 µM (active).
Consider `O=C(CNS(=O)(=O)c1cccs1)NCCc1ccc(Cl)cc1`, for which the IC50 in series [4] is > 47.1 µM (inactive). The EC50 in series [5] is > 53 µM (inactive).
For `CC(C)(C)c1ccccc1OCCN1CCCC1`, the EC50 in series [7] is > 60 µM (not active); in series [8], 1.35 µM (active). Also, in series [2] (read-out: AC50), the half-maximal activity concentration (AC50) is 35.5 µM (inconclusive).
As to `CN1CCN(c2ccc([N+](=O)[O-])cc2C(=O)N2CCOCC2)CC1`, the concentration at half-maximal activity (AC50) entry in series [2] is reported as “inconclusive”.
For `C[C@H](C(=O)O)c1cccc(Oc2ccccc2)c1`, the AC50 in series [6] was 12.6 µM (inconclusive).
Consider `N#Cc1cccc(-c2cncnc2NCc2cccs2)c1`, for which the concentration at half-maximal activity (AC50) in series [6] was 31.6 µM (inconclusive); in series [1] it was 0.501 µM (inconclusive).
Regarding `COc1ccccc1OCC(=O)NCC1CCCN(C(=O)c2ccccc2C(C)=O)C1` (centres undefined), in series [4], the IC50 is > 47.1 µM (inactive). Further, in series [5], the EC50 is > 53 µM (inactive).
For `CCOP(=O)(OCC)c1cc(CC)ccc1O`, in that order: > 47.1 µM (inactive) and > 53 µM (inactive).
For the molecule `CC(=O)c1ccccc1OCCCOc1cccc2cccnc12`, in series [3], the CC50 was 21.4 µM (active).
`O=C(CCn1c(=O)[nH]c2ccsc2c1=O)Nc1ccc(F)c(F)c1`: in series [1], the AC50 was 2.82 µM (inconclusive).
Consider `O=P(O)(COc1ccccc1)COc1ccccc1`, for which the AC50 in series [1] was 14.1 µM (inconclusive); in series [2] (read-out: AC50), 28.2 µM (inconclusive).
With `NC(=O)[C@H]1CC2(CC(c3cccc(NC(=O)c4ccccc4)c3)=NO2)CN1C(=O)[C@H]1CCC(=O)N1` (some centres undefined), the AC50 entry in series [2] is “inconclusive”.
For the molecule `CC(C)Cn1cnc2c(SCc3ccccc3)nc(N)nc21`, the IC50 in series [4] is > 47.1 µM (inactive). The EC50 in series [5] was > 53 µM (inactive).
In the same order, the values of `CC(C(=O)Nc1sccc1C(N)=O)N1C(=O)C2CC=CCC2C1=O` (centres undefined) are > 47.1 µM (inactive) and > 53 µM (inactive).
In the same order, the values of `Cc1ccc(Nc2c(O)ncnc2O)cc1` are > 47.1 µM (inactive) and > 53 µM (inactive).
Consider `O=[N+]([O-])c1cc(-c2nnc(C34CC5CC(CC(C5)C3)C4)o2)cc([N+](=O)[O-])c1`, for which the EC50 is > 60 µM (not active) in series [7] and 0.77 µM (active) in series [8]. In addition, in series [3], the half-maximal cytotoxic concentration (CC50) was > 50 µM (active).
Take `Cc1cccc(CNc2ncnc3ccc(-c4ccccc4C#N)cc23)c1`: in series [1], the half-maximal activity concentration (AC50) is 0.501 µM (inconclusive).
